Where two headings read alike, the source gives them in different places.
What was measured:
[1] = tested on: endogenous TFEB; assay: TFEB nuclear translocation, immunocytochemistry high-content imaging; format: cell-based
[2] = tested on: endogenous TFE3; assay: TFE3 nuclear translocation, immunocytochemistry high-content imaging; format: cell-based
[3] = tested on: SH-SY5Y cells; also: reference of the scale not given here
[4] = tested on: SH-SY5Y cells; conditions: human; also: reference of the scale not given here
[5] = tested on: SH-SY5Y cells; conditions: human; remark: listed apart in the source; also: reference of the scale not given here
[6] = tested on: SH-SY5Y cells; assay: AK (adenylate kinase) release ToxiLight cytotoxicity assay; conditions: PKIS2 primary screening; also: reference of the scale not given here
[7] = tested on: SH-SY5Y cells; assay: Nuclear count from microscopy images (cellular growth and toxicity); conditions: PKIS2 primary screening; also: reference of the scale not given here
[8] = tested on: SH-SY5Y cells; assay: Chemotype enrichment analysis of PKIS2 primary screen hit categories; conditions: PKIS2 primary screening, hit category
[9] = PKIS2 primary screening, DQ Red BSA intensity
[10] = PKIS2 primary screening, DQ Red BSA spot count

AK ([4]; SH-SY5Y cells, 24 h, 1 µM) | Nuclear Count ([5]; SH-SY5Y cells, 24 h, 1 µM) | Structure (SMILES) | TFEB % [1] | TFE3 % [2] | DQ Intensity [3] | DQ Spot [3] | TFEB % ([1]; PKIS2 primary screening) | TFE3 % ([2]; PKIS2 primary screening) | AK [6] | also measured
91.49 | 111.90 | O=C(Nc1n[nH]c2nc(-c3cccs3)c(Br)cc12)C1CCCC1 [SB-743341] | 21.21% | 12.29% | 118.79 | 104.54 | – | – | – | –
67.98 | 91.66 | COc1cccc(C2=C(Nc3ccc(Cl)c(C(=O)O)c3)C(=O)NC2=O)c1 [UNC10225038A] | 4.97% | 15.59% | 120.07 | 110.06 | – | – | – | –
– | – | CCCCc1nn2ncccc2c1-c1ccnc(Nc2ccc(N3CCN(C)CC3)cc2)n1 [UNC10225453A] | – | – | – | – | 12.73% | 20.14% | 108.81 | DQ Intensity ([3]; PKIS2 primary screening): 158.78; DQ Spot ([3]; PKIS2 primary screening): 101.42; Nuclear Count [5]: 74.87
– | – | O=c1cc(N2CCOCC2)nc2n(Cc3cccc(Cl)c3Cl)ccn12 [UNC10225167A] | – | – | – | – | 3.69% | 15.96% | – | DQ Intensity ([3]; PKIS2 primary screening): 91.40; DQ Spot ([3]; PKIS2 primary screening): 112.20; AK [4]: 151.05; Nuclear Count [7]: 101.24
75.61 | 95.28 | O=C(Nc1n[nH]c2cc(-c3cccc(F)c3)ccc12)C1CC1 [SB-735464] | 2.08% | 14.17% | 82.14 | 107.31 | – | – | – | –
73.81 | 104.88 | COc1ccccc1-c1ccc2c(NC(=O)C3CC3)n[nH]c2n1 [SB-711239] | 3.98% | 10.01% | 73.89 | 92.69 | – | – | – | –
122.64 | 111.13 | CCCC(=O)Nc1n[nH]c2ncccc12 [SB-601436] | 6.83% | 11.89% | 119.21 | 109.95 | – | – | – | –
106.60 | 88.09 | O=C1NC(=O)C(c2ccccc2)=C1Nc1cccc(O)c1 [UNC10225065A] | 4.40% | 9.48% | 107.12 | 107.03 | – | – | – | –
109.29 | 105.01 | O=C(Nc1n[nH]c2cc(-c3ccoc3)ccc12)C1CC1 [SB-738481] | 6.46% | 12.05% | 82.31 | 113.23 | – | – | – | –
– | – | Cc1ccc(C(=O)NC2CCCC2)cc1-c1ccc(C(=O)NCC2CC2)cc1 [UNC10225270A] | 16.20% | 10.04% | 84.15 | 81.23 | – | – | – | AK ([4]; 24 h, 1 µM): 80.83; Nuclear Count ([5]; 24 h, 1 µM): 92.17
– | – | Cc1ccc(-n2nc(C(C)(C)C)cc2NC(=O)Nc2ccc(OCCN3CCOCC3)c3ccccc23)cc1 [UNC10225354A] | 7.39% | 11.86% | 143.22 | 116.14 | – | – | – | AK [4]: 120.63; Nuclear Count [5]: 65.33
126.66 | 130.18 | O=C(Nc1n[nH]c2cc(-c3ccsc3)ccc12)C1CC1 [SB-732932] | 11.50% | 8.30% | 63.56 | 84.83 | – | – | – | –
96.89 | 114.88 | O=C1NC(=O)C(c2ccccc2Cl)=C1Nc1cccc(Cl)c1 [UNC10225092A] | 6.93% | 13.82% | 81.85 | 94.92 | – | – | – | –
86.32 | 121.57 | Nc1n[nH]c2cnc(-c3ccccc3)cc12 [SB-642124] | 10.03% | 5.79% | 94.71 | 98.20 | – | – | – | –
85.75 | 87.30 | CC(=O)Nc1n[nH]c2ncc(-c3ccccc3)cc12 [SB-548492] | 4.73% | 13.46% | 81.01 | 101.49 | – | – | – | –
73.45 | 95.91 | Nc1n[nH]c2nnc(-c3ccccc3)c(-c3ccccc3)c12 [UNC10225185A] | 8.38% | 12.30% | 101.09 | 91.84 | – | – | – | –
69.40 | 69.12 | O=C(Nc1n[nH]c2nc(-c3nccs3)c(Br)cc12)C1CCCC1 [SB-742609] | 8.05% | 7.93% | 95.35 | 108.28 | – | – | – | –

AK ([4]; SH-SY5Y cells, 24 h, 1 µM) | Nuclear Count ([5]; SH-SY5Y cells, 24 h, 1 µM) | Structure (SMILES) | TFEB % [1] | TFE3 % [2] | DQ Intensity [3] | DQ Spot [3] | TFEB % ([1]; PKIS2 primary screening) | TFE3 % ([2]; PKIS2 primary screening) | AK [6] | also measured
133.69 | 80.70 | COc1cccc(C2=C(Nc3cccc(Cl)c3)C(=O)NC2=O)c1 [UNC10225288A] | 6.04% | 8.01% | 106.89 | 108.64 | – | – | – | –
101.77 | 97.83 | COc1cccc(C2=C(Nc3cccc(O)c3)C(=O)NC2=O)c1 [UNC10225456A] | 8.57% | 7.19% | 100.94 | 105.72 | – | – | – | –
115.51 | 73.65 | O=C(Nc1n[nH]c2nc(-c3ccccc3)c(Br)cc12)C1CC1 [SB-708998] | 9.86% | 9.05% | 93.68 | 102.39 | – | – | – | –
– | – | Cn1cnc2c(N)ncnc21 [UNC10225123A] | 4.18% | 9.16% | 105.88 | 110.82 | – | – | – | AK [4]: 74.79; Nuclear Count [5]: 110.43
105.29 | 103.43 | CSc1ccc(NC2=C(c3ccccc3Cl)C(=O)NC2=O)cc1 [UNC10225346A] | 6.03% | 14.52% | 121.64 | 113.39 | – | – | – | –
– | – | CCCCc1nn2ncccc2c1-c1ccnc(NC2CC2)n1 [UNC10225247A] | – | – | – | – | 2.59% | 6.63% | 99.47 | DQ Intensity ([3]; PKIS2 primary screening): 77.25; DQ Spot ([3]; PKIS2 primary screening): 98.14; Nuclear Count [5]: 77.00
– | – | CC(C)(CN)c1nc(-c2ccc(Cl)c(O)c2)c(-c2ccncc2)[nH]1.O=C(O)C(F)(F)F [UNC10225206A] | – | – | – | – | 8.68% | 7.79% | 94.20 | Outcome [8]: DQ Only; DQ Intensity [3, 9]: 164.60; DQ Spot [3, 10]: 127.42; Nuclear Count [5]: 76.70
– | – | CC(C)(CN)c1nc(-c2ccc(Cl)c(O)c2)c(-c2ccncc2)[nH]1.O=C(O)C(F)(F)F [UNC10225206B] | – | – | – | – | 5.00% | 3.59% | 116.08 | Outcome [8]: DQ Only; DQ Intensity [3, 9]: 150.27; DQ Spot [3, 10]: 119.19; Nuclear Count [5]: 109.20
– | – | Nc1nccc2scc(-c3ccc4c(c3)CCN4C(=O)Cc3ccccc3)c12 [UNC10225119A] | – | – | – | – | 5.51% | 4.70% | 128.12 | Outcome [8]: LYSO TOXIC; DQ Intensity [3, 9]: 60.09; DQ Spot [3, 10]: 72.10; Nuclear Count [7]: 119.23
– | – | CN(C)CC(O)COc1ccc(Nc2nccc(-c3cnn4nc(N5CCOCC5)ccc34)n2)cc1 (stereo not drawn) [UNC10225197A] | 3.40% | 12.57% | 107.33 | 110.97 | – | – | 142.32 | Nuclear Count [5]: 103.35
– | – | COc1ccc(-c2oc3ncnc(N)c3c2-c2ccc(OC)cc2)cc1 [UNC10225431A] | – | – | – | – | 4.87% | 9.25% | 79.67 | Outcome [8]: DQ Only; DQ Intensity [3, 9]: 144.39; DQ Spot [3, 10]: 120.26; Nuclear Count [7]: 51.87
– | – | C=CC(=O)Nc1cc2c(Nc3ccc(F)c(Cl)c3)ncnc2cc1OCCCN1CCOCC1 [UNC10126563B] | – | – | – | – | 7.79% | 16.19% | 149.52 | Outcome [8]: TOXIC; DQ Intensity [3, 9]: 67.23; DQ Spot [3, 10]: 74.22; Nuclear Count [7]: 114.57
– | – | Cl.Cl.NC[C@H](CC1CCCCC1)NC(=O)c1cc(Br)c(-c2ccnc3[nH]ccc23)s1 [UNC10225276A] | – | – | – | – | 12.93% | 33.43% | 108.11 | Outcome [8]: TFEB/3 + DQ Int; DQ Intensity [3, 9]: 221.52; DQ Spot [3, 10]: 71.17; Nuclear Count [7]: 101.96
– | – | CN1C(=O)C(Nc2ccccc2)=C(c2ccccc2)C1=O [UNC10225242A] | – | – | – | – | 6.14% | 13.56% | 287.85 | Outcome [8]: TOXIC; DQ Intensity [3, 9]: 102.22; DQ Spot [3, 10]: 99.91; Nuclear Count [7]: 117.96
– | – | c1ccc(Oc2ccc(Nc3ccnc4cc(-c5ccc(CNCCN6CCOCC6)o5)ccc34)cc2)nc1 [UNC10225054A] | – | – | – | – | 22.56% | 33.41% | 119.39 | Outcome [8]: LYSO TOXIC; DQ Intensity [3, 9]: 95.11; DQ Spot [3, 10]: 49.97; Nuclear Count [7]: 92.65
– | – | Fc1cccc(COc2ccc(Nc3ncnc4nn5ccccc5c34)cc2Cl)c1 [UNC10225319A] | – | – | – | – | 3.13% | 21.26% | 110.07 | Outcome [8]: TFE3 + DQ; DQ Intensity [3, 9]: 134.45; DQ Spot [3, 10]: 139.92; Nuclear Count [7]: 77.83
– | – | CC(C)Oc1ccc2c(-c3ccnc(Nc4ccc(N5CCN(C)CC5)cc4)n3)cnn2n1 [UNC10225414A] | – | – | – | – | 3.20% | 8.69% | 109.44 | DQ Intensity ([3]; PKIS2 primary screening): 74.33; DQ Spot ([3]; PKIS2 primary screening): 86.73; Nuclear Count [5]: 127.68

— publication PMC9851200, “Multiparameter phenotypic screening for endogenous TFEB and TFE3 translocation identifies novel chemical series modulating lysosome function” (Autophagy, 2022)
